In patent publication US8629251B2, “Specific detection and quantification of phosphatidic acid using an Arabidopsis trigalactosyldiacylglycerol-4 (TGD4) protein” (Board of Trustees of Michigan State University, priority 2008, dated 2014):

Legend:
Type in all cases: binding
[1] = biological target: T1, Arabidopsis TGD2, DsRed-TGD2C WT (DR-WT) fusion protein, residues 119-381, SEQ ID NO:107 (Arabidopsis thaliana, UniProt Q9LTR2); experiment: Liposome-association assay (mixed PA/PC liposomes), DsRed-TGD2C WT
T1 construct: made in house; host or cells: Escherichia coli BL21 (DE3)
T1 sequence (Q9LTR2 119-381): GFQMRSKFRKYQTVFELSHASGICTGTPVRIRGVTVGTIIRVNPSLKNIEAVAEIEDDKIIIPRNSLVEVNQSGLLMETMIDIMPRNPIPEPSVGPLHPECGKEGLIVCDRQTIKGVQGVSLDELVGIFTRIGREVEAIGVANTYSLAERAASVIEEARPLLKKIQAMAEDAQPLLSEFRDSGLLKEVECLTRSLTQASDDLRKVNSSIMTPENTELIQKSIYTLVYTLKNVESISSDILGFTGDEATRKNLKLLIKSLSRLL
Procedure: FIG. 2A: Analysis by liposome-association assay. A mixture of dioleoyl-PA and dioleoyl-PC was used where the weight percent of PA was varied from 0-100% (wt/wt), maintaining the total lipid invariant at 250 μg. 1 μg protein was used. P, protein recovered in the absence of lipids.
In this assay, purified recombinant proteins were incubated with liposomes for 30 min at 30° C. before centrifugation at 20,000 g for 10 min to pellet the liposomes. Proteins bound to the liposomes were found associated with the lipid pellet, whereas non-binding proteins remained in the supernatant. In an effort to determine the optimal concentration of PA required for high specificity binding, a PA/PC liposome mixture containing varying weight fractions of PA was prepared and incubated with DsRed-TGD2CWT or DsRed alone.
The liposome association assay was performed as previously reported. (31). Briefly, lipids (dioleoyl-phosphatidylcholine, DOPC or dioleoyl-PA, DOPA) were incubated in TBS (50 mM Tris-HCl, pH 7; 0.1 M NaCl) at 37° C. for an hour followed by vigorous vortexing for 5 min. The liposomes were precipitated at 20,000 g and washed twice with ice-cold TBS.
Liposomes (200 μg) were mixed with purified DsRed-TGD2 fusion protein and TBS to make a final 100 μL solution. The mixture was incubated at 30° C. for 30 min and washed twice with ice-cold TBS by centrifugation at 20,000 g at 4° C. The liposome pellet mixed with sample buffer was analyzed by SDS-PAGE (28). Immuno-detection of the His-tagged protein was accomplished using the above mentioned Penta-His antibody at 1:15,000 and the anti mouse antibody at 1:75,000 dilution.
(§1) The protein band was visualized by chemiluminescent detection kit from Sigma. The autoradiography film was scanned, distinct protein bands were quantified using computer software Multi Gauge V3.0 (Fujifilm USA, Valhalla, N.Y.) and resulted data were plotted and analyzed by OriginPro8 (Origin lab corporation, Northampton, Mass.).

[2] = biological target: Arabidopsis TGD2, DsRed fusion of the 25-mer minimal domain (residues 201-225, SEQ ID NO:12), K221A (Arabidopsis thaliana, UniProt Q9LTR2, K221A); experiment: Liposome-association assay, point mutant K221A of the minimal domain; conditions: 100% PA liposomes, FIG. 4C
Arabidopsis TGD2, DsRed fusion of the 25-mer minimal domain (residues 201-225, SEQ ID NO:12), K221A, sequence (Q9LTR2 201-225 K221A): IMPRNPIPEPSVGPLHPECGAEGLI
Procedure: Some reports have identified that TGD2 PA-binding regions involve basic amino acids and/or tryptophan residues (10). […] Based on sequence similarity of TGD2 to its closely related homologs in plants and green algae, several charged and/or conserved amino acids were picked as potential interesting residues in the 25-mer minimal domain for possibly mediating interactions with PA. An alanine screen was then performed to evaluate these residues within a minimal PA binding region of TGD2 (i.e., for example, SEQ ID NO:12). Point mutations were generated in the 25-mer minimal domain and fused with DsRed to test PA binding by liposome-association assay using 100% PA liposomes.
The liposome association assay was performed as previously reported. (31). […]
Liposomes (200 μg) were mixed with purified DsRed-TGD2 fusion protein and TBS to make a final 100 μL solution. […] The liposome pellet mixed with sample buffer was analyzed by SDS-PAGE (28). […]
as §1

[3] = biological target: T2, Arabidopsis TGD4, DsRED-TGD4-His, full-length TGD4 1-479 (SEQ ID NO: 132) (Arabidopsis thaliana, UniProt Q9M903); experiment: Protein-lipid overlay assay, DsRED-TGD4-His; conditions: commercial phospholipid membrane, FIG. 18A
T2 sequence (Q9M903 1-479): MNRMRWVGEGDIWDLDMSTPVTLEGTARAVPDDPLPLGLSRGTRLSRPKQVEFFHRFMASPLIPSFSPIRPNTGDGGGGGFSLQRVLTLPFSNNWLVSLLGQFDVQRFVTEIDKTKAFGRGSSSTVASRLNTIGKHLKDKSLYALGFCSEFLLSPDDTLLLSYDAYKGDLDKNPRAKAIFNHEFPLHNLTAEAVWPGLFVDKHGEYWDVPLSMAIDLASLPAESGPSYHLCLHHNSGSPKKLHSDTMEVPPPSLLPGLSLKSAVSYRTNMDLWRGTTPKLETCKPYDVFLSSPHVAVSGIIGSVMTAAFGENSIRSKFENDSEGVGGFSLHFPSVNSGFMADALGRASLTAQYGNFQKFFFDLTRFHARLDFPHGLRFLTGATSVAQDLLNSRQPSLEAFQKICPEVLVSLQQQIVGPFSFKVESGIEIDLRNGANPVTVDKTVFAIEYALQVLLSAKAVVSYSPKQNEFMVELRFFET
Procedure: Protein-Lipid Overlay Assay:
The protein-lipid overlay assay was modified from (Awai et al., 2006, Lu and Benning, 2009). Phosphoinositol-4,5-bisphosphate PIP2) lipid strips were purchased from Echelon Biosciences (Salt Lake City, Utah). Lipids spotted onto membranes were purchased from Avanti Polar Lipids (Alabaster, Al.) as well as Larodan Fine Chemicals (Malmo, Sweden). Lipids (10 nmol) were suspended in 20 μl spotting buffer (250 μl chloroform, 500 μl methanol, 200 μl 50 mM HCl, 2 μl 1% (w/v) Ponseau S (Sigma, St. Louis, Mo.)) and spotted onto Amersham Hybond-C Extra membranes (GE Healthcare, Piscataway, N.J.) followed by drying for 1 hour in a fume hood. The lipid membranes were then blocked in 3% (w/v) bovine serum albumin (BSA) in TBST buffer (TBS with 0.25% (v/v) Tween 20) for 2 hours at room temperature. Purified DsRED-TGD4-His fusion proteins were added at 1 μg/ml final concentration and incubated overnight at 4° C. followed by washing 3 times in TBST. Lipid membranes were then incubated with 1:2000 diluted His antibody (Sigma) in blocking buffer for 2 hours at room temperature followed by 2 washes with TBST. The membranes were processed for immunoblotting as described below.

[4] = DR-WT as quantification control, mixed PA/PC liposomes, FIGS. 5A-5C

## CCCCCCCC/C=C\CCCCCCCC(=O)OC[C@H](COP(=O)(O)O)OC(=O)CCCCCCC/C=C\CCCCCCCC [PA, phosphatidic acid]
[1]; [4]
  Hill number, PA binding: 2.8
  modified Kd, PA binding: 37.66 mol %
[1]; PC, PA/PC or PA liposomes, FIG. 3B
  binding to PA or PC: significant binding
[1]; dioleoyl-PA/dioleoyl-PC liposomes, FIG. 2B
  Hill number, PA binding: 5.8
[2]
  PA binding: significantly reduced the amount of interaction with PA-liposomes
[3]
  binding to lipids on membranes: specifically bind
